ChEMBL document CHEMBL1153399, “Design, synthesis and SAR studies of tripeptide analogs with the scaffold 3-phenylpropane-1,2-diamine as aminopeptidase N/CD13 inhibitors” (Bioorg Med Chem, 2009)

Key:
[1] = molecular target: T1, Aminopeptidase N (Sus scrofa, UniProt P15145); experiment: Inhibition of pig kidney microsomal APN
T1 sequence (P15145 whole entry): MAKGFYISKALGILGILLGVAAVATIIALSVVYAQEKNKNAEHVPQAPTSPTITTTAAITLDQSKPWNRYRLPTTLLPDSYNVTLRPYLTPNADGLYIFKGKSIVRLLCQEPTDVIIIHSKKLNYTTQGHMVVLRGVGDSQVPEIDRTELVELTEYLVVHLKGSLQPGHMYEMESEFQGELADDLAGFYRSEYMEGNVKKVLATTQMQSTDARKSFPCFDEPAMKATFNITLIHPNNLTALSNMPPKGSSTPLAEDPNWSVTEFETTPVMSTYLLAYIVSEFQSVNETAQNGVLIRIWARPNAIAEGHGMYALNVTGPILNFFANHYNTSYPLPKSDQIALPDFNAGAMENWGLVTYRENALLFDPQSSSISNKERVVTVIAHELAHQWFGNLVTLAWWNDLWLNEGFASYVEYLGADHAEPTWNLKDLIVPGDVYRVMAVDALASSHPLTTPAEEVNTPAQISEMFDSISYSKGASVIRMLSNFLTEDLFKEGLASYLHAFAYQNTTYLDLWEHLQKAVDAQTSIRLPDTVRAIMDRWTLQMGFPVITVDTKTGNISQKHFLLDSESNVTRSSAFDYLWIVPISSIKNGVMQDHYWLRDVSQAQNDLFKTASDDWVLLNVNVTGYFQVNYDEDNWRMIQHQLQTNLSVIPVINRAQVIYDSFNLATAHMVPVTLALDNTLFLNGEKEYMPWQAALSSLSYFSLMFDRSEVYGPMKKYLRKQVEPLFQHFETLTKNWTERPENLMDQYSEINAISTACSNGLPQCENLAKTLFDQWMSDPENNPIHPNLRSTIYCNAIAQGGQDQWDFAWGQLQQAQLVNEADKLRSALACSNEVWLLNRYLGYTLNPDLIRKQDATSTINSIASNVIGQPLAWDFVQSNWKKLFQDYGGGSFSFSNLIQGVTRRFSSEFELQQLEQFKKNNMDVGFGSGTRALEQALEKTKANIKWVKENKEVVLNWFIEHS

[2] = system: HL-60; experiment: Cytotoxicity against human HL60 cells after 48 hrs by MTT assay; assay type: functional, cell-based; conditions: HL-60, 48 h

IC50 [1] [µM] | SMILES | IC50 [2] [µM]
181 | CC(C)C[C@H](NC(=O)N[C@@H](Cc1ccccc1)C(=O)NC[C@H](N)Cc1ccccc1)C(=O)O | –
693 | N[C@@H](CNC(=O)[C@H](Cc1ccccc1)NC(=O)CCCCl)Cc1ccccc1 | –
16.5 | CSCC[C@H](NC(=O)N[C@@H](CS)C(=O)NC[C@H](N)Cc1ccccc1)C(=O)O | 1180
1390 | N[C@@H](CNC(=O)[C@H](Cc1ccccc1)NC(=O)c1ccc([N+](=O)[O-])cc1)Cc1ccccc1 | –
89.5 | NCCCC[C@H](NC(=O)N[C@@H](Cc1ccccc1)C(=O)NC[C@H](N)Cc1ccccc1)C(=O)O | 1490
8.8 | CSCC[C@H](NC(=O)N[C@@H](Cc1ccccc1)C(=O)NC[C@H](N)Cc1ccccc1)C(=O)O | 270
33.2 | NCCC[C@H](NC(=O)N[C@@H](CS)C(=O)NC[C@H](N)Cc1ccccc1)C(=O)O | –
9.8 | N[C@@H](CNC(=O)[C@H](CS)NC(=O)N[C@@H](Cc1ccccc1)C(=O)O)Cc1ccccc1 | 1060
174 | N[C@@H](CNC(=O)[C@H](CS)NC(=O)NCC(=O)O)Cc1ccccc1 | –
202 | NCCCCCC(=O)N[C@@H](CS)C(=O)NC[C@H](N)Cc1ccccc1 | –
58.5 | CC(C)[C@H](NC(=O)N[C@@H](Cc1ccccc1)C(=O)NC[C@H](N)Cc1ccccc1)C(=O)O | –
277 | N[C@@H](CNC(=O)[C@H](Cc1ccccc1)NC(=O)c1cc([N+](=O)[O-])cc([N+](=O)[O-])c1)Cc1ccccc1 | –
2260 | N[C@@H](CNC(=O)[C@H](Cc1ccccc1)NC(=O)c1ccc(Cl)cc1Cl)Cc1ccccc1 | –
174 | COc1ccc(C(=O)N[C@@H](Cc2ccccc2)C(=O)NC[C@H](N)Cc2ccccc2)cc1 | –
107 | CC(C)C[C@H](NC(=O)N[C@@H](Cc1ccc(O)cc1)C(=O)O)C(=O)NC[C@H](N)Cc1ccccc1 | –
49.2 | N[C@@H](CNC(=O)[C@H](Cc1ccccc1)NC(=O)N[C@H](CS)C(=O)O)Cc1ccccc1 | –

IC50 [1] [µM] | SMILES | IC50 [2] [µM]
3240 | CC(C)C[C@H](NC(=O)NCC(=O)O)C(=O)NC[C@H](N)Cc1ccccc1 | –
1050 | N[C@@H](CNC(=O)[C@H](CS)NC(=O)c1ccc(Cl)cc1Cl)Cc1ccccc1 | –
148 | CC[C@H](C)[C@H](NC(=O)N[C@@H](CC(C)C)C(=O)NC[C@H](N)Cc1ccccc1)C(=O)O | –
522 | CC(C)C[C@H](NC(=O)N[C@@H](C)C(=O)O)C(=O)NC[C@H](N)Cc1ccccc1 | –
1460 | CC(C)C[C@H](NC(=O)CCCCCN)C(=O)NC[C@H](N)Cc1ccccc1 | –
1540 | NCCCCCC(=O)N[C@@H](Cc1ccccc1)C(=O)NC[C@H](N)Cc1ccccc1 | –
8.6 | NCCCC[C@H](NC(=O)N[C@@H](CS)C(=O)NC[C@H](N)Cc1ccccc1)C(=O)O | 290
45 | CC(C)C[C@H](NC(=O)N[C@@H](CS)C(=O)NC[C@H](N)Cc1ccccc1)C(=O)O | 2660
10.3 | N[C@@H](CNC(=O)[C@H](CS)NC(=O)N[C@H](CS)C(=O)O)Cc1ccccc1 | 540
366 | N[C@@H](CNC(=O)[C@H](Cc1ccccc1)NC(=O)CCc1ccccc1)Cc1ccccc1 | –
158 | CC[C@H](C)[C@H](NC(=O)N[C@@H](Cc1ccccc1)C(=O)NC[C@H](N)Cc1ccccc1)C(=O)O | –
14.8 | CC[C@H](C)[C@H](NC(=O)N[C@@H](CS)C(=O)NC[C@H](N)Cc1ccccc1)C(=O)O | –
142 | CC(C)C[C@H](NC(=O)N[C@@H](CC(C)C)C(=O)NC[C@H](N)Cc1ccccc1)C(=O)O | –
30.4 | CSCC[C@H](NC(=O)N[C@@H](CC(C)C)C(=O)NC[C@H](N)Cc1ccccc1)C(=O)O | –
58.8 | CC(C)[C@H](NC(=O)N[C@@H](CS)C(=O)NC[C@H](N)Cc1ccccc1)C(=O)O | –
